Values joined by “and” are separate entries in the source; they are usually repeats but may differ in a detail not shown here. Identical values can stand only once. “Also recorded” adds a separate entry of the source. Marks after values point to notes of the source that are not given here.
Key:
[1] = tested on: VERO (monkey kidney epithelial) non-tumoral cells; test: MTT cell viability assay in VERO cells; format: cell-based, African green monkey; conditions: Primates, 72 h of incubation, mean ± SD
Method: (§1) The HEP-G2 cancer cell line and the normal VERO cell line were cultured in DMEM supplemented with 10% FBS, 2% NaHCO3, and HEPES. All tests performed with these cells were carried out in 96-well flat-bottom plastic microplates (Corning® Labware and Equipment, Oneonta, NY, USA) due to the adherent nature of these cells. L5178Y-R cells and PBMC were maintained in RPMI-1640 culture medium supplemented with 10% FBS and 1% antibiotic/antimycotic solution. All the tests performed with these cells were carried out in 96-well curved-bottom plastic microplates (Corning®) because these cells are non-adherent.
(§2) Prior to the application of the treatments, the cells were incubated at 37 °C in a humidified incubator (Sanyo MCO-19AIC CO2 Incubator, Sanyo Electric Co., Ltd., Gunma-ken, Japan) with 5% CO2 for 24 h for adaptation. The cell viability was determined by MTT assay; MTT color intensity was directly associated with the number of living cells after 72 h of incubation. Mitochondrial enzymes, specifically succinate dehydrogenase, reduce MTT tetrazolium salt to form formazan; this reaction produces a purple–blue product that can be measured using spectrophotometry since the in vitro cell viability can be tested using the MTT colorimetric assay. Therefore, we decided to perform an MTT assay to correlate mitochondrial activity with viability. […]

[2] = tested on: HEP-G2 (human hepatocellular carcinoma) cells; test: MTT cell viability assay in HEP-G2 cells; format: cell-based; conditions: HepG2, 72 h of incubation, mean ± SD
Method: as §1
(§3) Prior to the application of the treatments, the cells were incubated at 37 °C in a humidified incubator (Sanyo MCO-19AIC CO2 Incubator, Sanyo Electric Co., Ltd., Gunma-ken, Japan) with 5% CO2 for 24 h for adaptation. The cell viability was determined by MTT assay; MTT color intensity was directly associated with the number of living cells after 72 h of incubation. Mitochondrial enzymes, specifically succinate dehydrogenase, reduce MTT tetrazolium salt to form formazan; this reaction produces a purple–blue product that can be measured using spectrophotometry since the in vitro cell viability can be tested using the MTT colorimetric assay.

[3] = tested on: PBMC (human peripheral blood mononuclear) cells; test: MTT cell viability assay in PBMC; format: cell-based; conditions: 72 h of incubation, mean ± SD
Method: as §1, §2

[4] = tested on: murine lymphoma (L5178Y-R) cells; test: MTT cell viability assay in L5178Y-R cells; format: cell-based; conditions: Mus musculus, L5178, 72 h of incubation, mean ± SD, read-out: IC50 (µg/mL) in Cells, L5178 Y-R
Method: as §1, §3

Hemolytic test = format: cell-based; conditions: human red blood cells (erythrocytes), pH 7.2; concentration causing 50% hemolysis of human red blood cells, mean ± SD
Method: The hemolytic activity was assessed using the hemolysis test. Treatments evaluated were prepared in PBS (pH 7.2 ± 0.2) in concentrations ranging from 10, 100, 200, 400, 600, 800, 1000, and 2000 µg/mL; the percent (%) of hemolysis was determined by measuring the Abs at 540 nm for each treatment.

[5] = tested on: human erythrocytes, AAPH-induced hemolysis; test: Anti-hemolytic test by the AAPH assay; format: cell-based; conditions: Erythrocyte; protection against AAPH radical (150 mM) in human erythrocytes, mean ± SD
Method: The AAPH inhibition test, as previously reported, was used to determine the anti-hemolytic activity. Hemolysis was induced by the AAPH radical (150 mM, prepared in PBS) as a positive control. The concentrations of the treatments were the same as in the hemolysis assay plus the AAPH.

Artemia salina nauplii = test: Lethality in Artemia salina; format: in vivo; conditions: 24 h of exposure, mean ± SD
Method: Artificial seawater was prepared using 20 g of sea salt and 6 mg of brewer’s yeast dissolved in 500 mL of distilled H2O (pH 7.8). Prior to the assay, the artificial seawater was conditioned by supplying air with an aquarium pump for 24 h. For the hatching of A. salina nauplii, a rectangular glass container (17 × 14 × 7 cm) was adapted, with a dark section where the cysts were incubated and an illuminated area that allows only hatched nauplii to be obtained by means of phototropism. After an incubation period of 48 h under room temperature conditions of 25 ± 2.0 °C (aeration and constant light), the test was carried out using 96-well transparent plastic microplates with a concave bottom (Corning®), in which 20 nauplii and different concentrations of the treatments (10, 100, 200, 400, 600, 800, 1000, and 2000 µg/mL) were deposited in a final volume of 200 µL per well [46]. […] Counting of live and dead larvae in each well of the microplate was performed with the use of a stereoscope microscope. […] A. salina nauplii viability was determined by Formula (6) as follows:(6) A. salina Viability %= Survival Treatment Count/ Survival Control Count×100

DPPH scavenging test = conditions: 50% decrease of DPPH, 517 nm, mean ± SD
Method: (§4) The antioxidant activity was determined by the DPPH, ABTS radical scavenging, and FRAP (Ferric Reducing Antioxidant Power) methods. In the DPPH and ABTS assays, Vitamin C served as the positive control. In all treatment evaluations, the concentrations ranged from 15.63, 31.25, 62.50, […], 250, 500, and 1000 µg/mL.
The antioxidant activity was assessed using the DPPH radical assay, where the antioxidant activity (free radical scavenging capacity) was quantified as IC50 in µg/mL. […] The DPPH radical scavenging assay was conducted in a 96-well flat-bottom plastic microplate (Corning®). The percentage inhibition of DPPH at 517 nm was determined using a UV/VIS spectrophotometer and calculated using Formula (7) as follows:(7) DPPH scavenging %=Abs517 Control−Abs517 Sample/Abs517 Control×100

ABTS scavenging test = conditions: 50% decrease of ABTS radical, 734 nm, mean ± SD
Method: as §4
The antioxidant activity was determined using the ABTS radical scavenging method, where the antioxidant activity (free radical scavenging capacity) was quantified as IC50 in µg/mL. […] The ABTS radical scavenging assay was conducted in 96-well plastic microplates (Corning®), and the percentage inhibition of ABTS at 734 nm was calculated using Formula (8) as follows:(8) ABTS scavenging %=Abs734nm Control−Abs734 Sample/Abs734nm Control×100

[6] = tested on: murine macrophages (J774A.1 cell line); test: Nitric oxide production (Griess reagent); format: cell-based
Method: The macrophage cultures were incubated in triplicate in 25 cm^2 tissue culture flasks (Corning Glass Works, Corning®, Oneonta, NY, USA) in a total volume of 7 mL of RPMI-1640 culture medium supplemented with 10% FBS and 1% antibiotic/antimycotic solution and maintained at 37 °C in 5% CO2. A concentration of 200 ng/mL of E. coli O26:B6 LPS served as an inflammatory-inducing agent to stimulate NO production. NO production was assessed by measuring nitrite accumulation in the supernatant using Griess reagent. A standard curve was generated using NaNO2 (1 M) to interpret the test results.

Row | Structure (SMILES) | IC50 [1] [µg/mL] | IC50 [2] [µg/mL] | IC50 [3] [µg/mL] | IC50 [4] [µg/mL] | IC50 (Hemolytic test) [µg/mL] | IC50 [5] [µg/mL] | A. salina LD50 (Artemia salina nauplii) | DPPH IC50 (DPPH scavenging test) | ABTS IC50 (ABTS scavenging test) | activity in response to NO production ([6]; 0.98 to 500 µg/mL) | NO production in macrophages compared to LPS ([6]; 0.5 h, 0.00–500 µg/mL) | NO production in macrophages compared to LPS ([6]; 4 h, 0.00–31.25 µg/mL) | NO production in macrophages compared to LPS ([6]; 4 h, 62.50–250 µg/mL) | NO production in macrophages compared to LPS ([6]; 4 h, 500–1000 µg/mL) | NO production in macrophages compared to LPS ([6]; 24 h, 0.00–500 µg/mL) | NO production in macrophages compared to LPS ([6]; BER at 1000 µg/mL, 0.5, 4 and 24 h)
1 | COc1ccc2cc3[n+](cc2c1OC)CCc1cc2c(cc1-3)OCO2 [BER, 16,17-dimethoxy-5,7-dioxa-13-azoniapentacyclo [11.8.0.0^2,10.0^4,8.0^15,20]henicosa-1(13),2,4(8),9,14,16,18,20-octaene] | 908 ± 31.9 | 56.9 ± 9.45 | 27.1 ± 7.16 | < 5 | 713 ± 38 | 36.9 ± 5.49 | 178.00 µg/mL and 178.00 ± 29.70 ^b,** µg/mL | 44.80 ± 1.22 ^a,* µg/mL | 40.29 ± 9.02 ^a,* µg/mL | immunomodulatory activity | no significant increase in NO production | no increase in NO production | behaved in the same way as LPS | increase in NO production greater than that of LPS | no increase in ON production | increased NO production; also recorded: significantly greater effect on NO production compared to LPS
2 | O=C1O[C@H]([C@@H](O)CO)C(O)=C1O [Vitamin C, ascorbic acid] | – | – | – | – | – | – | – | 68.90 ± 3.11 ^b µg/mL | 81.76 ± 6.30 ^b µg/mL | – | – | – | – | – | – | –

— article PMC11125357, “Assessment of Anticancer Properties of Argemone mexicana L. and Berberine: A Comparative Study” (Plants, 2024)
